Data published in patent US20230322771A1, “HETEROCYCLIC GLP-1 AGONISTS” (Gasherbrum Bio, Inc., priority 2020, published 2023).
Where two headings read alike, the source gives them in different places.

Target: GLP-1 Receptor (Homo sapiens, UniProt P43220)
Assay: GLP-1R agonist cAMP stimulation assay (HEK293/GLP1R/CRE-LUC cells, HTRF cAMP dynamic 2 kit)
Assay type: cell-based
Settings: HEK293/CRE-Luc cell line (HDB) stably expressing GLP-1 Receptor, 30 min incubation at 37° C.
Procedure: Activation of GLP-1 receptor is known to stimulate cyclic AMP (cAMP) production in cells which indicates primary coupling to the Gαs subunit of the G protein heterotrimeric complex.
To optimize functional activity directed toward Gαs coupling, a HEK293/CRE-Luc cell line developed by HDB stably expressing the GLP-1 Receptor was used. 200× concentration of compound working solutions were prepared (Agilent Technologies Bravo) with ½ log serial dilution in 384-well Echo LDV plate (Labcyte, Cat #LP-0200). 50 nL/well 200× concentration of compound working solutions were moved to 384-well white low volume plate (Greiner, Cat #784075) using Labcyte ECHO550. 1×10^5 cells/mL HEK293/GLP1R/CRE-LUC(HD Biosciences) cell suspensions prepared with assay buffer[DPBS containing 0.5 mM IBMX(Sigma, Cat #15879) and 0.1% BSA(GENVIEW, Cat #FA016-100 g)], 10 uL cell suspensions were added to each well of previous generated assay plate which already contains 50 nl compound at 200× concentration using ThermoFisher Multidrop Combi(1000 cells/well). Seal the plate and incubate at 37° C. with 5% CO2 for 30 min.
After incubation the cAMP assay signal was generated using cAMP dynamic 2 Kit (Cisbio). 5 μL cAMP-d2 working solution was added to each well, followed with 5 μL Anti-cAMP antibody-cryptate working solution added to each well using ThermoFisher Multidrop Combi. Incubate at room temperature for 1 hour protected from light. Read the fluorescence at 665 and 615 nm with Reader PerkinElmer EnVision.
% Activity=100%×(mean RLU of test sample−mean RLU of vehicle control)/(mean RLU of MAX control−mean RLU of vehicle control))

[1] = read-out: GLP1R cAMP Stimulation DR: EC50 (nM) [Species: Human, Assay Cell Line: HDB]

Sequence of GLP-1 Receptor (P43220 24-463): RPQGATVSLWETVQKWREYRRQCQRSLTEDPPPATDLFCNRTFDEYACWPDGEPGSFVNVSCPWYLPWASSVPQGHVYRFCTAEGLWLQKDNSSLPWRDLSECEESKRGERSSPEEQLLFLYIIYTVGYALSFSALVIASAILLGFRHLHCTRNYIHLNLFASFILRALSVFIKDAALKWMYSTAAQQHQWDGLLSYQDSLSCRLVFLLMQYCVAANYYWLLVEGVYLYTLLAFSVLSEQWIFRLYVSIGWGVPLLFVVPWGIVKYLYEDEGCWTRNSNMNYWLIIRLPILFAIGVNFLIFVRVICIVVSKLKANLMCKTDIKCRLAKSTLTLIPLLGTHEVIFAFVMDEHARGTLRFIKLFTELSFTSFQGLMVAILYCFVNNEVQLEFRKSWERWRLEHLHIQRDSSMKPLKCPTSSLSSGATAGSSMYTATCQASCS

SMILES	EC50 [1] [nM]	EC50 (read-out: GLP1R cAMP Stimulation DR: pEC50 (M) [Species: Human, Assay Cell Line: HDB] (converted)) [nM]
Cc1cc(-n2nc3c(c2-n2ccn(-c4ccc(N5CCCS5(=O)=O)cc4)c2=O)[C@H](C)N(C(=O)c2cc4cc(C5CCOCC5)ccc4n2[C@@]2(c4noc(=O)[nH]4)C[C@@H]2C)CC3)cc(C)c1F [Compound 107a, 3-((1S,2S)-1-(2-((S)-3-(3-(4-(1,1-dioxidoisothiazolidin-2-yl)phenyl)-2-oxo-2,3-dihydro-1H-imidazol-1-yl)-2-(4-fluoro-3,5-dimethylphenyl)-4-methyl-4,5,6,7-tetrahydro-2H-pyrazolo[4,3-c]pyridine-5-carbonyl)-5-(tetrahydro-2H-pyran-4-yl)-1H-indol-1-yl)-2-methylcyclopropyl)-1,2,4-oxadiazol-5(4H)-one]	0.18	0.17
CCS(=O)(=O)Cc1ccc(-n2ccn(-c3c4c(nn3-c3cc(C)c(F)c(C)c3)CCN(C(=O)c3cc5cc(C6CCOCC6)ccc5n3[C@@]3(c5noc(=O)[nH]5)C[C@@H]3C)[C@H]4C)c2=O)cc1 [Compound 103a, 3-((1S,2S)-1-(2-((S)-3-(3-(4-((ethylsulfonyl)methyl)phenyl)-2-oxo-2,3-dihydro-1H-imidazol-1-yl)-2-(4-fluoro-3,5-dimethylphenyl)-4-methyl-4,5,6,7-tetrahydro-2H-pyrazolo[4,3-c]pyridine-5-carbonyl)-5-(tetrahydro-2H-pyran-4-yl)-1H-indol-1-yl)-2-methylcyclopropyl)-1,2,4-oxadiazol-5(4H)-one]	0.065	
Cc1cc(-n2nc3c(c2-n2ccn(-c4ccc(NS(C)(=O)=O)cc4)c2=O)[C@H](C)N(C(=O)c2cc4cc(C5CCOCC5)ccc4n2[C@@]2(c4noc(=O)[nH]4)C[C@@H]2C)CC3)cc(C)c1F [Compound 105a, N-(4-(3-((S)-2-(4-fluoro-3,5-dimethylphenyl)-4-methyl-5-(1-((1S,2S)-2-methyl-1-(5-oxo-4,5-dihydro-1,2,4-oxadiazol-3-yl)cyclopropyl)-5-(tetrahydro-2H-pyran-4-yl)-1H-indole-2-carbonyl)-4,5,6,7-tetrahydro-2H-pyrazolo[4,3-c]pyridin-3-yl)-2-oxo-2,3-dihydro-1H-imidazol-1-yl)phenyl)methanesulfonamide]	0.036	
Cc1cc(-n2nc3c(c2-n2ccn(-c4cccc(N5CCCS5(=O)=O)c4)c2=O)[C@H](C)N(C(=O)c2cc4cc(C5CCOCC5)ccc4n2[C@@]2(c4noc(=O)[nH]4)C[C@@H]2C)CC3)cc(C)c1F [Compound 106a, 3-((1S,2S)-1-(2-((S)-3-(3-(3-(1,1-dioxidoisothiazolidin-2-yl)phenyl)-2-oxo-2,3-dihydro-1H-imidazol-1-yl)-2-(4-fluoro-3,5-dimethylphenyl)-4-methyl-4,5,6,7-tetrahydro-2H-pyrazolo[4,3-c]pyridine-5-carbonyl)-5-(tetrahydro-2H-pyran-4-yl)-1H-indol-1-yl)-2-methylcyclopropyl)-1,2,4-oxadiazol-5(4H)-one]	0.7	
Cc1cc(-n2nc3c(c2-n2ccn(-c4cccc(CS(C)(=O)=O)c4)c2=O)[C@H](C)N(C(=O)c2cc4cc(C5CCOCC5)ccc4n2[C@@]2(c4noc(=O)[nH]4)C[C@@H]2C)CC3)cc(C)c1F [Compound 102a, 3-((1S,2S)-1-(2-((S)-2-(4-fluoro-3,5-dimethylphenyl)-4-methyl-3-(3-(3-((methylsulfonyl)methyl)phenyl)-2-oxo-2,3-dihydro-1H-imidazol-1-yl)-4,5,6,7-tetrahydro-2H-pyrazolo[4,3-c]pyridine-5-carbonyl)-5-(tetrahydro-2H-pyran-4-yl)-1H-indol-1-yl)-2-methylcyclopropyl)-1,2,4-oxadiazol-5(4H)-one]	0.27	
CNS(=O)(=O)c1ccc(-n2ccn(-c3c4c(nn3-c3cc(C)c(F)c(C)c3)CCN(C(=O)c3cc5cc(C6CCOCC6)ccc5n3[C@@]3(c5noc(=O)[nH]5)C[C@@H]3C)[C@H]4C)c2=O)cc1 [Compound 104a, 4-(3-((S)-2-(4-fluoro-3,5-dimethylphenyl)-4-methyl-5-(1-((1S,2S)-2-methyl-1-(5-oxo-4,5-dihydro-1,2,4-oxadiazol-3-yl)cyclopropyl)-5-(tetrahydro-2H-pyran-4-yl)-1H-indole-2-carbonyl)-4,5,6,7-tetrahydro-2H-pyrazolo[4,3-c]pyridin-3-yl)-2-oxo-2,3-dihydro-1H-imidazol-1-yl)-N-methylbenzenesulfonamide]	0.081	
Cc1cc(-n2nc3c(c2-n2ccn(-c4cccc(CCS(C)(=O)=O)c4)c2=O)[C@H](C)N(C(=O)c2cc4cc(C5CCOCC5)ccc4n2[C@@]2(c4noc(=O)[nH]4)C[C@@H]2C)CC3)cc(C)c1F [Compound 109a, 3-((1S,2S)-1-(2-((S)-2-(4-fluoro-3,5-dimethylphenyl)-4-methyl-3-(3-(3-(2-(methylsulfonyl)ethyl)phenyl)-2-oxo-2,3-dihydro-1H-imidazol-1-yl)-4,5,6,7-tetrahydro-2H-pyrazolo[4,3-c]pyridine-5-carbonyl)-5-(tetrahydro-2H-pyran-4-yl)-1H-indol-1-yl)-2-methylcyclopropyl)-1,2,4-oxadiazol-5(4H)-one]	0.24	

Second part, the compound after the results:

EC50 [1] [nM]	EC50 (read-out: GLP1R cAMP Stimulation DR: pEC50 (M) [Species: Human, Assay Cell Line: HDB] (converted)) [nM]	SMILES
0.55		CCS(=O)(=O)C(C)c1ccc(-n2ccn(-c3c4c(nn3-c3cc(C)c(F)c(C)c3)CCN(C(=O)c3cc5cc(C6CCOCC6)ccc5n3C3(c5noc(=O)[nH]5)CC3)[C@H]4C)c2=O)c(F)c1 (stereo partly drawn) [Compound 113a, 3-(1-(2-((4S)-3-(3-(4-(1-(ethylsulfonyl)ethyl)-2-fluorophenyl)-2-oxo-2,3-dihydro-1H-imidazol-1-yl)-2-(4-fluoro-3,5-dimethylphenyl)-4-methyl-4,5,6,7-tetrahydro-2H-pyrazolo[4,3-c]pyridine-5-carbonyl)-5-(tetrahydro-2H-pyran-4-yl)-1H-indol-1-yl)cyclopropyl)-1,2,4-oxadiazol-5(4H)-one]
0.32		CCS(=O)(=O)C(C)c1ccc(-n2ccn(-c3c4c(nn3-c3cc(C)c(F)c(C)c3)CCN(C(=O)c3cc5cc(C6CCOCC6)ccc5n3[C@@]3(c5noc(=O)[nH]5)C[C@@H]3C)[C@H]4C)c2=O)c(F)c1 (stereo partly drawn) [Compound 111a, 3-((1S,2S)-1-(2-((4S)-3-(3-(4-(1-(ethylsulfonyl)ethyl)-2-fluorophenyl)-2-oxo-2,3-dihydro-1H-imidazol-1-yl)-2-(4-fluoro-3,5-dimethylphenyl)-4-methyl-4,5,6,7-tetrahydro-2H-pyrazolo[4,3-c]pyridine-5-carbonyl)-5-(tetrahydro-2H-pyran-4-yl)-1H-indol-1-yl)-2-methylcyclopropyl)-1,2,4-oxadiazol-5(4H)-one]
0.17		CCS(=O)(=O)Cc1ccc(-n2ccn(-c3c4c(nn3-c3cc(C)c(F)c(C)c3)CCN(C(=O)c3cc5cc(C6CCOCC6)ccc5n3C3(c5noc(=O)[nH]5)CC3)[C@H]4C)c2=O)cc1 [Compound 112a, (S)-3-(1-(2-(3-(3-(4-((ethylsulfonyl)methyl)phenyl)-2-oxo-2,3-dihydro-1H-imidazol-1-yl)-2-(4-fluoro-3,5-dimethylphenyl)-4-methyl-4,5,6,7-tetrahydro-2H-pyrazolo[4,3-c]pyridine-5-carbonyl)-5-(tetrahydro-2H-pyran-4-yl)-1H-indol-1-yl)cyclopropyl)-1,2,4-oxadiazol-5(4H)-one]
